In patent US5688826A, “Excitatory amino acid derivatives” (Eli Lilly and Company, priority 1996, dated 1997):

What was measured:
[1] = tested on: cAMP-linked metabotropic glutamate receptors; experiment: agonism of glutamate at cAMP-linked metabotropic glutamate receptors; type: cell-based; details: result in words only
[2] = tested on: metabotropic glutamate receptors; experiment: displacement of 1S,3R-ACPD-sensitive [3H]glutamate binding to rat brain cell membranes; details: crude membranes of rat forebrain
Method: The binding of [^3 H]glutamate was conducted with crude membranes of rat forebrain as described by Schoepp and True. Schoepp and True, Neuroscience Lett., 145, 100-104 (1992) and Wright et al., J. Neurochemistry 63:938-945 (1994).

Row | agonist activity at cAMP-linked metabotropic glutamate receptors [1] | IC50 [2] [nM] | Compound
1 | potent agonists | 55 | NC1(C(=O)O)COC2C(C(=O)O)C21 (stereo not drawn) [Example 1, 1SR,4SR,5RS,6SR-4-Amino-2-Oxabicyclo[3.1.0]hexane-4,6-dicarboxylic Acid]
2 | potent agonists | – | NC1(C(=O)O)CSC2C(C(=O)O)C21 (stereo not drawn) [Example 4, 1SR,4RS,5RS,6RS-4-Amino-2-Thiabicyclo[3.1.0]hexane-4,6-dicarboxylic Acid]
3 | potent agonists | – | NC1(C(=O)O)COC2C(C(=O)O)C21 (single isomer, unassigned) [Example 2(g)]
